Data: patent publication US20260356835A1, “BICYCLIC HETEROARYL COMPOUNDS” (QuantX Biosciences US, Inc., priority 2023, published 2026)
pIC50: −log10 of the molar value.

Tests used:
[1] = biological target: T1, N-his8-TEV-hPARG (389-976) (Homo sapiens, UniProt Q86W56); test: PARG Biochemical Enzymatic Assay (PARG inhibition HTRF assay); details: 62.5 pM PARG, 5 nM Biotin-Parylated PARP1 substrate, 60 minutes preincubation, 10 minutes reaction at 23 °C
T1 construct: N-his8-TEV-hPARG (389-976); His8 (N); TEV protease cleavage site (N); made in house; host or cells: E. coli BL21(DE3)
Experimental: PARG Biochemical Enzymatic Assay
TEV-His8-PolyADP-Ribose Polymerase 1 (379-1014) (PARP1) and N-his8-TEV-hPARG (389-976) were used to transform BL21(DE3) competent cells followed by growth for 1 hour at 37 °C and plating on Kanamycin resistant agar plates. A single colony was then inoculated into 1 ml of Luria Broth and expansion into a 1 liter scale for growth at 37 °C for 3 hours. Expression was induced via 0.2 mM IPTG induction for 20 hours at 16 °C in BL21(DE3) E. coli. Purification was then performed using a Nickel column, size exclusion chromatography and HPLC analysis.
For substrate preparation, […] nicked DNA and 2 μM PARP1 protein were mixed for 10 minutes at 25 °C 10 μM biotin-NAD+ and 100 μM NAD+ were then added and incubated for 60 minutes at 30 °C to yield PARylated PARP1 substrate.
For compound screening, compounds were serially diluted to a 3× final concentration in assay buffer (Tris pH7.5 50 mM, KCl 50 mM, Tween-20 0.01%, BSA 0.1 mg/ml, EDTA 3 mM, EGTA 0.4 mM, DTT 1 mM) containing 1% DMSO. A top concentration of 1.5 μM for a 10-point dose response curve using a 1:3 dilution curve was used. 2.5×PARG (156.25 pM working concentration, 62.5 pM final concentration) was prepared in assay buffer and 4 ul added to a 384 well assay plate containing 2 μl of serially diluted compound. The plate was then centrifuged for 10 seconds and incubated for 60 minutes at 23 °C. 4 μl of 2.5× Biotin-Parylated PARP1 (12.5 nM working concentration, 5 nM final concentration) was then added to the plate and incubated for 10 minutes at 23 °C. 4 μl of […] Detection reagent containing 0.44 μg/ml of Streptavidin-Europium cryptate and 4 μg/ml of anti-6His-XL665 monoclonal antibody was added to the plate and incubated for 60 minutes at 23 °C. The Homogeneous Time Resolved Fluorescent (HTRF) signal was then measured on an Envision plate reader using and excitation wavelength of 337 nm and emission wavelengths of 615 nm and 665 nm. Normalized percent inhibition was then calculated using the following equation: % Inhibition normalized=(compound signal-min signal)/(max signal-min signal)*100%, where Maximum signal was substrate only wells and Minimum signal was enzyme and substrate well. IC50 was calculated by fitting % Inhibition values and log of compound concentrations to nonlinear regression (log(inhibitor) vs. response—Variable slope(four parameters)) with GraphPad 9.4.1
For biochemical activity, bracket is denoted as: A<100 nM; 100 nM<B<500 nM; C>500 nM

Kuramochi cells = test: Cellular Viability Assay (5 day Kuramochi cell viability, CellTiter-Glo); format: cell-based; details: 5 days, 37 °C, growth inhibition relative to Day 0 (T0) and DMSO
Experimental: Kuramochi cells were seeded at a density of 1000 cells per well in a 384-well, white, sterile, clear bottom plate, using a Multidrop liquid dispenser and incubated for 24 hours at 37 °C in a 5% CO2 humidified environment. 24 hours later, compounds were added starting at a top dose of 10 μM for a 9-point dose response curve at a 1:3 dilution using an iDOT HT liquid handler and incubated for 5 days at 37 °C in a 5% CO2 humidified environment. After 5 days and at Day 0, plates were incubated at room temperature for 30 minutes followed by the addition of 30 μl of CellTiter-Glo Reagent. Plates were then mixed for 10 minutes on an orbital shaker followed by incubation at room temperature for 20 minutes. Luminescence was then read using the Envision plate reader. Percent Growth Inhibition was then calculated using the following equation: Percent Growth Inhibition normalized=100−(compound signal−T0)/(max signal−T0)*100%, where Max Signal refers to the DMSO only treated cells and T0 refers to the Day0 viability measurement. Growth Inhibition 50 was then calculated using the following equation: Y=Bottom+(Top−Bottom)/(1+10^((Log IC50−X)*hillslope)).
For cell activity, bracket is denoted as: A<1 uM; 1 uM<B<5 uM; C>5 uM.

T1 sequence (Q86W56 389-976): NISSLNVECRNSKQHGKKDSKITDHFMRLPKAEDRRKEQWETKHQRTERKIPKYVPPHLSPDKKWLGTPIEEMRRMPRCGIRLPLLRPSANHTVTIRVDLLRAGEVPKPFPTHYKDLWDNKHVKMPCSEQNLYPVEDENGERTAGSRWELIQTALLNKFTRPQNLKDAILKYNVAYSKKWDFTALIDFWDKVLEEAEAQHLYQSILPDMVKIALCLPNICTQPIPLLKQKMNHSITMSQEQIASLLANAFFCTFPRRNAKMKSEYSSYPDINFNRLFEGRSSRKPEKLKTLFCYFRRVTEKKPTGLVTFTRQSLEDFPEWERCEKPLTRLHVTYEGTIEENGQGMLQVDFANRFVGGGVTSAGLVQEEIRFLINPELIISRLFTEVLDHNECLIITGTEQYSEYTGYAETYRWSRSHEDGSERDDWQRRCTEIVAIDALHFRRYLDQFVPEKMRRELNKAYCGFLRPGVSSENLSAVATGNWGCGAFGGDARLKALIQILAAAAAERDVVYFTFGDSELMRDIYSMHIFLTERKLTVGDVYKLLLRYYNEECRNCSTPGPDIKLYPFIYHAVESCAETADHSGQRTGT

Compound	pIC50 [1]	pIC50 (Kuramochi cells)
N#CC1(NS(=O)(=O)c2cc3c(-c4nnc(C(F)F)s4)ncn3c(N3CCC4(CC3)COC4)c2F)CC1 [Example 41, N-(1-cyanocyclopropyl)-1-(5-(difluoromethyl)-1,3,4-thiadiazol-2-yl)-6-fluoro-5-(2-oxa-7-azaspiro[3.5]nonan-7-yl)imidazo[1,5-a]pyridine-7-sulfonamide]	> 7.00	–
N#CC1(NS(=O)(=O)c2cc(N3CCC4(CC3)COC4)n3ncc(-c4nnc(C(F)F)s4)c3c2)CC1 [Example 2, N-(1-cyanocyclopropyl)-3-(5-(difluoromethyl)-1,3,4-thiadiazol-2-yl)-7-(2-oxa-7-azaspiro[3.5]nonan-7-yl)pyrazolo[1,5-a]pyridine-5-sulfonamide]	> 7.00	> 6.00
Cc1nnc(N2CCN(c3cc(S(=O)(=O)NC4(C#N)CC4)cc4c(-c5nnc(C(F)F)s5)cnn34)CC2)o1 [Example 24, N-(1-cyanocyclopropyl)-3-[5-(difluoromethyl)-1,3,4-thiadiazol-2-yl]-7-[4-(5-methyl-1,3,4-oxadiazol-2-yl)piperazin-1-yl]pyrazolo[1,5-a]pyridine-5-sulfonamide]	> 7.00	> 6.00
CC1(NS(=O)(=O)c2cc(N3CCC4(CC3)COC4)n3ncc(-c4nc(C(F)F)ns4)c3c2)CC1 [Example 25, 3-(3-(difluoromethyl)-1,2,4-thiadiazol-5-yl)-N-(1-methylcyclopropyl)-7-(2-oxa-7-azaspiro[3.5]nonan-7-yl)pyrazolo[1,5-a]pyridine-5-sulfonamide]	> 7.00	–
N#CC1(NS(=O)(=O)c2cc(C3CCN(C(=O)C4CC4)CC3)n3ncc(-c4nnc(C(F)F)s4)c3c2)CC1 [Example 11, N-(1-cyanocyclopropyl)-7-[1-(cyclopropanecarbonyl)-4-piperidyl]-3-[5-(difluoromethyl)-1,3,4-thiadiazol-2-yl]pyrazolo[1,5-a]pyridine-5-sulfonamide]	> 7.00	> 6.00
CC1(NS(=O)(=O)c2cc(-n3cc(C4(C#N)CC4)cn3)c3cnn(-c4nnc(C5(O)CCC5)s4)c3c2)CC1 [Example 33, 4-(4-(1-cyanocyclopropyl)-1H-pyrazol-1-yl)-1-(5-(1-hydroxycyclobutyl)-1,3,4-thiadiazol-2-yl)-N-(1-methylcyclopropyl)-1H-indazole-6-sulfonamide]	6.30 to 7.00	5.30 to 6.00
O=S(=O)(NC1(C(F)F)CC1)c1cc(N2CCC3(CC2)COC3)n2cnc(-c3nnc(C(F)F)s3)c2c1 [Example 35, 1-(5-(difluoromethyl)-1,3,4-thiadiazol-2-yl)-N-(1-(difluoromethyl)cyclopropyl)-5-(2-oxa-7-azaspiro[3.5]nonan-7-yl)imidazo[1,5-a]pyridine-7-sulfonamide]	> 7.00	> 6.00
N#CC1(NS(=O)(=O)c2cc(C3=CCN(C(=O)C4CC4)CC3)n3ncc(-c4nnc(C(F)F)s4)c3c2)CC1 [Example 6, N-(1-cyanocyclopropyl)-7-(1-(cyclopropanecarbonyl)-1,2,3,6-tetrahydropyridin-4-yl)-3-(5-(difluoromethyl)-1,3,4-thiadiazol-2-yl)pyrazolo[1,5-a]pyridine-5-sulfonamide]	> 7.00	> 6.00
CC1(NS(=O)(=O)c2cc(N3CCC4(CC3)COC4)n3ncc(-c4nnc(C5(C#N)CC5)s4)c3c2)CC1 [Example 8, 3-(5-(1-cyanocyclopropyl)-1,3,4-thiadiazol-2-yl)-N-(1-methylcyclopropyl)-7-(2-oxa-7-azaspiro[3.5]nonan-7-yl)pyrazolo[1,5-a]pyridine-5-sulfonamide]	> 7.00	> 6.00
CC1(NS(=O)(=O)c2cc(N3CCC4(CC3)COC4)n3ncc(-c4nnc(C5(F)CC5)s4)c3c2)CC1 [Example 12, 3-(5-(1-fluorocyclopropyl)-1,3,4-thiadiazol-2-yl)-N-(1-methylcyclopropyl)-7-(2-oxa-7-azaspiro[3.5]nonan-7-yl)pyrazolo[1,5-a]pyridine-5-sulfonamide]	> 7.00	> 6.00
CCCS(=O)(=O)N1CCN(c2cc(S(=O)(=O)NC3(C#N)CC3)cc3c(-c4nnc(C(F)F)s4)cnn23)CC1 [Example 18, N-(1-cyanocyclopropyl)-3-(5-(difluoromethyl)-1,3,4-thiadiazol-2-yl)-7-(4-(propylsulfonyl)piperazin-1-yl)pyrazolo[1,5-a]pyridine-5-sulfonamide]	> 7.00	> 6.00
CC(=O)N1CCN(c2cc(S(=O)(=O)NC3(C)CC3)cc3c2cnn3-c2nnc(C3(O)CCC3)s2)CC1 [Example 29, 4-(4-acetylpiperazin-1-yl)-1-[5-(1-hydroxycyclobutyl)-1,3,4-thiadiazol-2-yl]-N-(1-methylcyclopropyl)indazole-6-sulfonamide]	6.30 to 7.00	–
C#CC1(NS(=O)(=O)c2cc(N3CCN(C(=O)N4CC[C@H](O)C4)CC3)c3cnn(-c4nnc(C(F)F)s4)c3c2)CC1 [Example 26, 1-[5-(difluoromethyl)-1,3,4-thiadiazol-2-yl]-N-(1-ethynylcyclopropyl)-4-[4-[(3S)-3-hydroxypyrrolidine-1-carbonyl]piperazin-1-yl]indazole-6-sulfonamide]	> 7.00	> 6.00
CC1(C(=O)N2CCN(c3cc(S(=O)(=O)NC4(C#N)CC4)cc4c(-c5nnc(C(F)F)s5)cnn34)CC2)CCC1 [Example 19, N-(1-cyanocyclopropyl)-3-[5-(difluoromethyl)-1,3,4-thiadiazol-2-yl]-7-[4-(1-methylcyclobutanecarbonyl)piperazin-1-yl]pyrazolo[1,5-a]pyridine-5-sulfonamide]	> 7.00	> 6.00
O=C(N1CCN(c2cc(S(=O)(=O)NC34CC(C3)C4)cc3c2cnn3-c2nnc(C(F)F)s2)CC1)N1CC[C@H](O)C1 [Example 27, N-(1-bicyclo [1.1.1]pentanyl)-1-[5-(difluoromethyl)-1,3,4-thiadiazol-2-yl]-4-[4-[(3S)-3-hydroxypyrrolidine-1-carbonyl]piperazin-1-yl] indazole-6-sulfonamide]	< 6.30	–
CC1(NS(=O)(=O)c2cc(N3CCC4(CC3)COC4)n3ncc(-c4nc5ncccc5s4)c3c2)CC1 [Example 21, N-(1-methylcyclopropyl)-7-(2-oxa-7-azaspiro[3.5]nonan-7-yl)-3-(thiazolo[4,5-b]pyridin-2-yl)pyrazolo[1,5-a]pyridine-5-sulfonamide]	> 7.00	> 6.00
CC(=O)N1CCN(c2cc(S(=O)(=O)NC3(C)CC3)cn3c(-c4nnc(C5(C#N)CC5)s4)cnc23)CC1 [Example 38, 8-(4-acetylpiperazin-1-yl)-3-(5-(1-cyanocyclopropyl)-1,3,4-thiadiazol-2-yl)-N-(1-methylcyclopropyl)imidazo[1,2-a]pyridine-6-sulfonamide]	> 7.00	–
CC(=O)N1CCN(c2cc(S(=O)(=O)NC3(C)CC3)cc3c2cnn3-c2nc3c(s2)C(C)(O)COC3)CC1 (stereo not drawn) [Example 30, 4-(4-acetylpiperazin-1-yl)-1-(7-hydroxy-7-methyl-6,7-dihydro-4H-pyrano[3,4-d]thiazol-2-yl)-N-(1-methylcyclopropyl)-1H-indazole-6-sulfonamide]	< 6.30	–
